Measurements from patent US20080171750A1, “Modulation Of Neurogenesis With Use of Modafinil” (BrainCells, Inc., priority 2007, published 2008).
pEC50, pIC50: −log10 of the molar value. Where two headings read alike, the source gives them in different places.

What was measured:
[1] = molecular target: mGluR2 (Homo sapiens, UniProt Q14416); settings: read-out: IC50 against mGluR2; cited from earlier work
[2] = molecular target: mGluR3 (Homo sapiens, UniProt Q14832); settings: read-out: IC50 against mGluR3; cited from earlier work
[3] = system: Group I or Group III receptors; settings: at sub-mM concentrations; cited from earlier work
[4] = system: KA, AMPA, and NMDA iGlu receptors; settings: cited from earlier work
[5] = molecular target: human mGlu2 receptors (Homo sapiens, UniProt Q14416); settings: low nanomolar range; read-out: EC50 against human mGlu2 receptors in vitro; cited from earlier work
[6] = molecular target: human mGlu3 receptors (Homo sapiens, UniProt Q14832); settings: low nanomolar range; read-out: EC50 against human mGlu3 receptors in vitro; cited from earlier work
[7] = system: Human neural stem cells (hNSCs); experiment: Neuronal differentiation of human neural stem cells (TUJ-1 staining); type: cell-based; settings: for maximum neuronal differentiation percent of positive control: basal media values subtracted, 0.01 μM to 31.6 μM
Protocol: Mitogen-free test media with a positive control for neuronal differentiation was used along with basal media without growth factors as a negative control.
The presence of synergy was determined by use of a combination index (CI). […] The CI is a quantitative measure of the nature of drug interactions, comparing the EC50's of two compounds, when each is assayed alone, to the EC50 of each compound when assayed in combination. The combination index (CI) is equal to the following formula: […]
where C1 and C2 are the concentrations of a first and a second compound, respectively, resulting in 50% activity in neuronal differentiation when assayed in combination; and IC1 and IC2 are the concentrations of each compound resulting in 50% activity when assayed independently.

[8] = system: Human neural stem cells (hNSCs); experiment: Astrocyte differentiation of human neural stem cells (GFAP staining); type: cell-based
[9] = Homo sapiens, Neural stem cell, agent alone, concentration response curve 0.01 μM to 31.6 μM (antalarmin to 3.16 μM), modafinil batch of FIG. 1-3, read-out: EC50, neuronal differentiation, agent used alone
[10] = Homo sapiens, Neural stem cell, read-out: EC50, neuronal differentiation, agent alone (FIG. 8 experiment)

Sequence of mGluR3 (Q14832 23-879): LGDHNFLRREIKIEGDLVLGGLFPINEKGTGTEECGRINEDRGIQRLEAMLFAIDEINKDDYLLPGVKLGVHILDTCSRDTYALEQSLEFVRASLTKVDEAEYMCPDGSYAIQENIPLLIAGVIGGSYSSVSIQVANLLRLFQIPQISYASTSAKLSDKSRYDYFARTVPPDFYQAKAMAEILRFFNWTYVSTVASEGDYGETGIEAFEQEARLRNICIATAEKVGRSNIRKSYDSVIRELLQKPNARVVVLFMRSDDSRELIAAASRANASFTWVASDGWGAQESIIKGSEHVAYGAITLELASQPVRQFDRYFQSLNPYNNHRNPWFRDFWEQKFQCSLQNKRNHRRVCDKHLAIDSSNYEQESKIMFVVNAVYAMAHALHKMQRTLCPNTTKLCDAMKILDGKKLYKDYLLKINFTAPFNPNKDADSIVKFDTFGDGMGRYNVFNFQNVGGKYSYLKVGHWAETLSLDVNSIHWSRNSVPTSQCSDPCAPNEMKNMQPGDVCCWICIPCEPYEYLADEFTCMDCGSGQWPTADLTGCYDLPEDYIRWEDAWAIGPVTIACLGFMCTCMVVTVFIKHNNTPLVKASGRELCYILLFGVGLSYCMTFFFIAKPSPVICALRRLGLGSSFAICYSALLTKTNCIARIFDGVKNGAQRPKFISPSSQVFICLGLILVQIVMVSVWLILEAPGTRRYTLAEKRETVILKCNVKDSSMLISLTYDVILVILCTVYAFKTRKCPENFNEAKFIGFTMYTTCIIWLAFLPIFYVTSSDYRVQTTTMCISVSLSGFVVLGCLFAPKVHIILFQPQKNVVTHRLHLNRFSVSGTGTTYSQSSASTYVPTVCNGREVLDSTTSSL
Sequence of human mGlu3 receptors (Q14832 23-879): as above
Sequence of mGluR2 (Q14416 19-872): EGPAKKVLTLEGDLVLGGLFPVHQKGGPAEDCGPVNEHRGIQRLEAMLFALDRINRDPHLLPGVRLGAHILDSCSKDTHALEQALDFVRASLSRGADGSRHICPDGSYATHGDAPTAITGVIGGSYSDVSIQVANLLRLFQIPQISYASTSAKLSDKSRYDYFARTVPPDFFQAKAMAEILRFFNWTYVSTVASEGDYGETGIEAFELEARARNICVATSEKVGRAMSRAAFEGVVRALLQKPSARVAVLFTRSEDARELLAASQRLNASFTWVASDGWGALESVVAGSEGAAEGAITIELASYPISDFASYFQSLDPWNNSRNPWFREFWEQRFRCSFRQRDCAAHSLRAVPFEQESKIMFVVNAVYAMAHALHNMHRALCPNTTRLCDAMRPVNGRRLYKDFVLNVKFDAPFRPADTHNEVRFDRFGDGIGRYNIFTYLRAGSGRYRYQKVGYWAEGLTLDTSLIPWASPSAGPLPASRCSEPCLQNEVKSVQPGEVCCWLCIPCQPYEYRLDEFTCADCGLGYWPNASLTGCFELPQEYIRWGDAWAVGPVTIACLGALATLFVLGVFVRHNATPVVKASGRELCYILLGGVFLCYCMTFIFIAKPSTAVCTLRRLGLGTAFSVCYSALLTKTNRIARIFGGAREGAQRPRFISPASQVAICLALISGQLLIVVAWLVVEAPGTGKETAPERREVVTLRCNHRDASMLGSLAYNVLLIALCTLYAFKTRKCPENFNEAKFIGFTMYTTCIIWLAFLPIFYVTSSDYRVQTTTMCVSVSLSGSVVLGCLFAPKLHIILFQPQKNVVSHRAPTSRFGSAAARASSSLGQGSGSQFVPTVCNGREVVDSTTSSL
Sequence of human mGlu2 receptors (Q14416 19-872): as above

In the case of `NC1(C(=O)O)CCc2cc(P(=O)(O)O)ccc21` (racemic) [APICA, (RS)-1-amino-5-phosphonoindan-1-carboxylic acid], the pIC50 [1] is listed as roughly 4.52, the pIC50 [2] is listed as roughly 4.52 and the “activity against Group I or Group III receptors” value [3] is listed as “no appreciable activity”.

For `N[C@](CC1c2ccccc2Oc2ccccc21)(C(=O)O)[C@H]1C[C@@H]1C(=O)O` [LY341495, (2S)-2-amino-2-(1S,2S-2-carboxycycloprop-1-yl)-3-(xanth-9-yl) propanoic acid], the “activity against KA, AMPA, and NMDA iGlu receptors” value [4] is given as “substantially inactive”.

For `N[C@@]1(C(=O)O)CO[C@H]2[C@H](C(=O)O)[C@H]21` [LY379268, (−)-2-Oxa-4-aminobicyclohexane-4,6-dicarboxylic acid], the pEC50 [5] is listed as greater than 8.00 and the pEC50 [6] is listed as greater than 8.00.

For `Cc1oc2nc3c(c(NC(=O)CN4CCCC4=O)c2c1C)CCCC3` [MKC-231], the pEC50 ([7]; agent alone, concentration response curve 0.01 μM to 31.6 μM (antalarmin to 3.16 μM), modafinil batch of FIG. 1-3, read-out: EC50, neuronal differentiation, agent used alone) was 5.41 and the “maximum neuronal differentiation percent of positive control” value (“maximum neuronal differentiation percent” for short) [7] was 53%.

For `CC(=O)NCCCS(=O)(=O)O` [acamprosate], the pEC50 [7, 9] was roughly 4.41.

Compound `CCCCN(CC)c1nc(C)nc2c1c(C)c(C)n2-c1c(C)cc(C)cc1C` [antalarmin] has a pEC50 [7, 9] of roughly 4.46.

With `NC(=O)C[S@@+]([O-])C(c1ccccc1)c1ccccc1` [armodafinil, (−)-2-[(R)-(diphenylmethyl)-sulfinyl]acetamide] the pEC50 [7, 10] was roughly 5.91.

With `CN1C(=O)COc2c(C(=O)NC3CN4CCC3CC4)cc(Cl)cc21` (stereo not shown) [azasetron] the pEC50 [7, 9] was roughly 5.04.

For `O=C1CC2(CCCC2)CC(=O)N1CCCCN1CCN(c2ncccn2)CC1` [buspirone], the pEC50 [7, 9] was 5.08, the “maximum neuronal differentiation percent” value [7] was 52% and the “maximum astrocyte differentiation percent of positive control” value ([8]; basal media values subtracted, 0.01 μM to 31.6 μM) was 59%.

Work on `NC(=O)C[S+]([O-])C(c1ccccc1)c1ccccc1` (stereo not shown) [modafinil, 2-benzhydrylsulfinylethanamide] yielded a pEC50 [7, 10] of 5.71, a pEC50 ([7]; Homo sapiens, Neural stem cell, read-out: EC50, neuronal differentiation, agent used alone) of less than 4.50 and a pEC50 ([7]; Homo sapiens, Neural stem cell, read-out: EC50, neuronal differentiation, modafinil alone (batch 2)) of 5.54. The pEC50 ([7]; Homo sapiens, Neural stem cell, read-out: EC50 of modafinil alone, estimated based on extrapolation) was roughly 4.08, the “maximum neuronal differentiation percent” value [7] was 19% and the astrogenesis produced ([8]; modafinil alone) was “little or no astrogenesis”.

`NCCc1c[nH]c2ccc(O)cc12` [serotonin, 5-hydroxytryptamine] gave a pEC50 [7, 9] of roughly 5.16.
